Legend:
[1] = test system: unsaturated B12 binding capacity (UBBC); details: relative to cyanocobalamin
[2] = test system: unsaturated B12 binding capacity (UBBC); details: relative to cyanocobalamin; J. Nucl. Med. 38, 717-723 (1997), US 5,739,313; cited from earlier work
[3] = Specific activity of radiolabeled cobalamin DTPA conjugates; details: poly-DTPA complex, increased versus mono-DTPA compounds

Row | Substance | in vitro biological activity (UBBC) when compared to cyanocobalamin [1] [%] | in vitro biological activity (UBBC), comparison to cyanocobalamin [2] [%] | specific activity [3] [mCi]
1 | cyanocobalamin-poly-L-lysine | 92 |  | 
2 | cyanocobalamin-DTPA |  | 66.4 | 
3 | cyanocobalamin-poly-L-lysine-polyDTPA | 43.4 |  | 4.5

Source: patent publication US7591995B2, “Cobalamin conjugates useful as imaging and therapeutic agents” (Mayo Foundation for Medical Education and Research, priority 1999, dated 2009)
